Test results published in patent EP4631502A1 (Nicoventures Trading Limited, priority 2024, dated 2025).

Key:
[1] = target: human adenosine A2A receptors (Homo sapiens, UniProt P29274); experiment: Adenosine A2A receptor radioligand binding assay ([125I]-ZM241385 competition, membranes of HEK293 cells)
Method: Approximately 0.4-0.9 µg protein-containing membranes were incubated for 60 min in a total volume of 100 µL at 37°C. assay buffer:
Test compound data are presented as specific radioligand binding to the receptor. Specific binding is defined as the difference between the total binding and the non-specific binding determined in the presence of the reference compound as detailed in the previous sections.
(§1) In case of ill-defined curves or algorithm-generated minima below the defined non-specific binding, the IC50 value was determined by graphical extrapolation.

Adenosine A1 receptor = Adenosine A1 receptor (Rattus norvegicus, UniProt P25099); details: read-out: IC50 Mean (footnote: Literature value determined in rat), Ji et al., J Med. Chem. 39, 781-788 (1996); cited from earlier work
Chain of Adenosine A1 receptor (P25099 whole entry): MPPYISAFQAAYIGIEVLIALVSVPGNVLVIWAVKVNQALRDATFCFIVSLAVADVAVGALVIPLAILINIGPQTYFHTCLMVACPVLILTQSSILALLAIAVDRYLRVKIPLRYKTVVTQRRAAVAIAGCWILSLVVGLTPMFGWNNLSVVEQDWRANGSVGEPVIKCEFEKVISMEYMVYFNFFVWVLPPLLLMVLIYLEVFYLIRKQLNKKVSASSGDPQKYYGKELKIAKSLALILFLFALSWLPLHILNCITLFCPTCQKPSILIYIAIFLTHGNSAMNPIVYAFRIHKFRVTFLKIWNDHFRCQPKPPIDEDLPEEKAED

[2] = target: T1, Human adenosine A1 receptors (Homo sapiens, UniProt P30542); experiment: biochemical; details: [3H]-DPCPX 1 nM, 60 min, 27°C
T1 sequence (P30542 1-326): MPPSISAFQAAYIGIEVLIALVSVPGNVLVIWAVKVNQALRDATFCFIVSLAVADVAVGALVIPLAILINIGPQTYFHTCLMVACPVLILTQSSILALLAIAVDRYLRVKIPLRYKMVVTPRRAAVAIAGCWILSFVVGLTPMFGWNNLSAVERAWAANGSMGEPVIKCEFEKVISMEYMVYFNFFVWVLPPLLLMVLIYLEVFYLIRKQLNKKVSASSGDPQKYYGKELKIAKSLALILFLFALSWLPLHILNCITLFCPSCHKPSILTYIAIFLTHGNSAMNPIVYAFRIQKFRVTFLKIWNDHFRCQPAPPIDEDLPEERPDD
Method: Binding experiments were performed according to the data sheet provided by the supplier of the receptor (Perkin Elmer) with modifications:
Approximately 2.4-3 µg protein-containing membranes were incubated for 60 min in a total volume of 100 µL at 27°C: assay buffer:
Test compound data are presented as specific radioligand binding to the receptor.
as §1

Chain of human adenosine A2A receptors (P29274 whole entry): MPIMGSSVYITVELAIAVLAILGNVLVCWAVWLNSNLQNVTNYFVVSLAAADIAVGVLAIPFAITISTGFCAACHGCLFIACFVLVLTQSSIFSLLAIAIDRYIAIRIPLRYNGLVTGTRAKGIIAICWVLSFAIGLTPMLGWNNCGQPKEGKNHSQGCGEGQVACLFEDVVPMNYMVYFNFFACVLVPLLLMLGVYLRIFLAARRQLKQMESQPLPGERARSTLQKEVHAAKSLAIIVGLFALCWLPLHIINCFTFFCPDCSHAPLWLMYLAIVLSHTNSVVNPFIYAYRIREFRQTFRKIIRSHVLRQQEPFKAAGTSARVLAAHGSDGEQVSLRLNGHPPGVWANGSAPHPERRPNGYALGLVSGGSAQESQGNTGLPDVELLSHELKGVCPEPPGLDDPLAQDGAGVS

SMILES: COc1cc2oc(-c3ccc(O)cc3)cc(=O)c2c(O)c1OC [Cirsimaritin]
- IC50 ([1]; IC50 1.M, first measurement, [125I]-ZM241385 20000 cpm, 60 min, 37°C): 1300 nM
- IC50 ([1]; IC50 2.M, second measurement, [125I]-ZM241385 20000 cpm, 60 min, 37°C): 2100 nM
- IC50 ([1]; IC50 Mean, mean of 1.M and 2.M): 1700 nM
- IC50 (Adenosine A1 receptor): 1200 nM
- IC50 ([2]; IC50 1.M, first measurement): 617000 nM
- IC50 ([2]; IC50 2.M, second measurement): 122000 nM
